Test results published in ChEMBL document CHEMBL1201862, “PubChem BioAssay data set” (2004).
Calls of active or inactive are those of the source.

Tests used:
Orexin receptor type 2 [1] = molecular target: T1, Orexin receptor type 2 (Homo sapiens, UniProt O43614); test: Counterscreen assay for antagonists of the orexin 1 receptor (OX1R; HCRTR1): Fluorescence-based cell-based dose response assay for antagonists of the orexin 2 receptor (OX2R; HCRTR2), run by assay provider.; assay type: functional
T1 sequence (O43614 whole entry): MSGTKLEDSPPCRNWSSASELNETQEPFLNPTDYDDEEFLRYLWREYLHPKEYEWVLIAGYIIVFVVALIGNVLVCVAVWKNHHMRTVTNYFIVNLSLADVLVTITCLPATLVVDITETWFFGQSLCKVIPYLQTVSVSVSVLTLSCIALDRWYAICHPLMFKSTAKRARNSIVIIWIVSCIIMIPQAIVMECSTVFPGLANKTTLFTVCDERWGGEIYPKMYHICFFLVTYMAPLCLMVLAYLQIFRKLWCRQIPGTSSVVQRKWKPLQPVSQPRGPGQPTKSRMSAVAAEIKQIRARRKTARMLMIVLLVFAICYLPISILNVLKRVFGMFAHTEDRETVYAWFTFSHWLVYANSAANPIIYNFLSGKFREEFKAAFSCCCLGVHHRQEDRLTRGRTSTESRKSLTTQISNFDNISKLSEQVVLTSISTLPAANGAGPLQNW

[2] = molecular target: T2, Orexin/Hypocretin receptor type 1 (Homo sapiens, UniProt O43613); test: Homogeneous Time Resolved Fluorescence (HTRF)-based cell-based high throughput dose response assay for antagonists of the orexin 1 receptor (OX1R; HCRTR1). [Related pubchem assays (depositor defined):AID434989, AID435008, AID463079, AID485270, AID492963, AID492964, AID492965, AID493232, AID504717, AID504718]; assay type: functional
T2 sequence (O43613 whole entry): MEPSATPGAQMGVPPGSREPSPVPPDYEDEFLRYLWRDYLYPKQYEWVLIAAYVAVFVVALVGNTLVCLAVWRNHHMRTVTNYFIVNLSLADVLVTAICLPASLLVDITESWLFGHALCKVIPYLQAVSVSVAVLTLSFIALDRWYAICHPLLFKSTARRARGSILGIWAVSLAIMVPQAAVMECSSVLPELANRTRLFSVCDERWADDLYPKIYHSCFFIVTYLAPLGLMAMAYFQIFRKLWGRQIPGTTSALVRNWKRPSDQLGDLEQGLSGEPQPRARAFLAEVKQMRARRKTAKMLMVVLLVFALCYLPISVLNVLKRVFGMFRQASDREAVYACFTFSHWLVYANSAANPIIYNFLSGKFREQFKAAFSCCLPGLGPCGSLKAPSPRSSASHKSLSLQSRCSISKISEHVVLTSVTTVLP

[3] = (§1) Counterscreen for antagonists of the orexin 1 receptor (OX1R; HCRTR1): Fluorescence-based cell-based high throughput dose response assay to identify antagonists of the parental CHO cell line. [Related pubchem assays (depositor defined):AID434989, AID435008, AID463079, AID485270, AID492963, AID492964, AID492965, AID493232, AID504699, AID504701]; assay type: functional
[4] = molecular target: T2, Orexin/Hypocretin receptor type 1; test: Fluorescence-based cell-based high throughput dose response assay for antagonists of the orexin 1 receptor (OX1R; HCRTR1). [Related pubchem assays (depositor defined):AID434989, AID435008, AID463079, AID485270, AID492963, AID492964, AID492965, AID493232, AID504717, AID504718]; assay type: functional
CHO-K1 = test: as §1, with “Homogeneous time resolved fluorescence (HTRF)-based” for “Fluorescence-based”, “cell-based” for “cell-based high throughput”, “CHO-K1” for “CHO”; assay type: functional; conditions: Cricetulus griseus;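 further: potency for inhibition of ATP-stimulated IP1 production as antagonists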
Orexin receptor type 2 [5] = molecular target: T1, Orexin receptor type 2; test: Counterscreen assay for antagonists of the orexin 1 receptor (OX1R; HCRTR1): Homogeneous Time Resolved Fluorescence (HTRF)-based cell-based dose response assay for antagonists of the orexin 2 receptor (OX2R; HCRTR2), run by assay provider.; assay type: functional
H4 = test: Luminescence Cell-Based Dose Response HTS to Identify Activators of 5'UTR Stem-Loop Driven Prion Protein mRNA Translation in H4 Neuroglioblastoma Cells. [Related pubchem assays: 1829 (Project Summary), 1814 (Primary HTS)]; assay type: functional; conditions: Homo sapiens
[6] = Luminescence Cell-Based Dose Confirmation HTS to Identify Activators of 5'UTR Stem-Loop Driven Alpha-Synuclein mRNA Translation in H4 Neuroglioblastoma Cells. [Related pubchem assays: 1829 (Project Summary), 1814 (Primary HTS)]; assay type: functional
[7] = Luminescence Cell-Based Dose Response HTS to Identify Activators of Luciferase Translation or Activity in H4 […] Cells. [Related pubchem assays: 1829 (Project Summary), 1814 (Primary HTS)]; assay type: functional
Melanocortin receptor 4 = Melanocortin receptor 4 (Homo sapiens, UniProt P32245); test: inhibitors of MC4R cAMP signaling – cell-based, TR-FRET, biased antagonists, dose response (AID 602298); assay type: functional;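 further: antagonist potency against agonist-stimulated cAMP production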
Melanocortin receptor 4, sequence (P32245 whole entry): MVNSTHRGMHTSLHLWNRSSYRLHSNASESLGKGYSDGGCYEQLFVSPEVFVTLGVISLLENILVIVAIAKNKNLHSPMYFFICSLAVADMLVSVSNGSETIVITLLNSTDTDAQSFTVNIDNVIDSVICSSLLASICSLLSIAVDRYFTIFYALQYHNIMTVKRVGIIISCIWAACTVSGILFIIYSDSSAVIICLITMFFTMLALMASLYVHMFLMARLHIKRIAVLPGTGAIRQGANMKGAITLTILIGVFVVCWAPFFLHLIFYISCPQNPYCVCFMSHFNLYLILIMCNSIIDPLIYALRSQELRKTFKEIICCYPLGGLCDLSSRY

[8] = cAMP pathway inhibition in counterscreen cell line – TR-FRET cAMP detection, counter-screen for MC4R biased antagonist project, dose response (AID 602305); assay type: functional, cell-based;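 further: U2OS cells stimulated with forskolin near its EC80 as the cAMP inducer; potency is for inhibition of forskolin-stimulated cAMP signaling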
Genome polyprotein = Genome polyprotein (dengue virus type 2, UniProt P29990); test: flavivirus cap methylation enzyme inhibition – biochemical, confirmation dose response, primary screen (AID 588689); assay type: functional
Genome polyprotein, sequence (P29990 2492-3391 limits assumed): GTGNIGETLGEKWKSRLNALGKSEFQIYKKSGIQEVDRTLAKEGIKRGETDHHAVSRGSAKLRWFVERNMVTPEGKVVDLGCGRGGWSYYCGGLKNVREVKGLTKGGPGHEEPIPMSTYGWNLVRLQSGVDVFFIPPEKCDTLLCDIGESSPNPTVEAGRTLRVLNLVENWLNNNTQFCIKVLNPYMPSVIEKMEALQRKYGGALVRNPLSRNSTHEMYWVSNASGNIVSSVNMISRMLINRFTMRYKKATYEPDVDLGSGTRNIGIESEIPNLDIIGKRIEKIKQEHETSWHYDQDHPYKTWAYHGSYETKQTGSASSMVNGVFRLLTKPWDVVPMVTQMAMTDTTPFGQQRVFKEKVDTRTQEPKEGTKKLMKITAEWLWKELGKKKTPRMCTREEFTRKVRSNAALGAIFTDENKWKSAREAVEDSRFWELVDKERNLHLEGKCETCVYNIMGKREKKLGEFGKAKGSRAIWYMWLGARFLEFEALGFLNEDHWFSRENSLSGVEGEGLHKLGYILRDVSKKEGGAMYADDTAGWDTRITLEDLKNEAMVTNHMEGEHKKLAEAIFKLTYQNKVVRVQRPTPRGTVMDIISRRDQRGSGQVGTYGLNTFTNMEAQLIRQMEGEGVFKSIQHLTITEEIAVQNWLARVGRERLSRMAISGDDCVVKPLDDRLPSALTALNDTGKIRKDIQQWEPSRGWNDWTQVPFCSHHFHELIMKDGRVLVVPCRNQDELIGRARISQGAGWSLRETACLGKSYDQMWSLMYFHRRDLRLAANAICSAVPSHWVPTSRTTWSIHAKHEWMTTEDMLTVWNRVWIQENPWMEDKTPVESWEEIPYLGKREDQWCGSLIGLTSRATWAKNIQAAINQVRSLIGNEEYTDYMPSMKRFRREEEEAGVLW

Vero = test: viability of Vero cells under compound – cytotoxicity control for flavivirus capping enzyme inhibitors (AID 588742); assay type: functional; conditions: Chlorocebus sabaeus
[9] = molecular target: Ras and Rab interactor 1/Tyrosine-protein kinase ABL1 (Homo sapiens, UniProt P00519+Q13671); assay type: functional;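 further: biochemical TR-FRET dose-response test measuring inhibition of binding between Rin1 and Abl proteins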
Ras and Rab interactor 1/Tyrosine-protein kinase ABL1, sequence (P00519 whole entry): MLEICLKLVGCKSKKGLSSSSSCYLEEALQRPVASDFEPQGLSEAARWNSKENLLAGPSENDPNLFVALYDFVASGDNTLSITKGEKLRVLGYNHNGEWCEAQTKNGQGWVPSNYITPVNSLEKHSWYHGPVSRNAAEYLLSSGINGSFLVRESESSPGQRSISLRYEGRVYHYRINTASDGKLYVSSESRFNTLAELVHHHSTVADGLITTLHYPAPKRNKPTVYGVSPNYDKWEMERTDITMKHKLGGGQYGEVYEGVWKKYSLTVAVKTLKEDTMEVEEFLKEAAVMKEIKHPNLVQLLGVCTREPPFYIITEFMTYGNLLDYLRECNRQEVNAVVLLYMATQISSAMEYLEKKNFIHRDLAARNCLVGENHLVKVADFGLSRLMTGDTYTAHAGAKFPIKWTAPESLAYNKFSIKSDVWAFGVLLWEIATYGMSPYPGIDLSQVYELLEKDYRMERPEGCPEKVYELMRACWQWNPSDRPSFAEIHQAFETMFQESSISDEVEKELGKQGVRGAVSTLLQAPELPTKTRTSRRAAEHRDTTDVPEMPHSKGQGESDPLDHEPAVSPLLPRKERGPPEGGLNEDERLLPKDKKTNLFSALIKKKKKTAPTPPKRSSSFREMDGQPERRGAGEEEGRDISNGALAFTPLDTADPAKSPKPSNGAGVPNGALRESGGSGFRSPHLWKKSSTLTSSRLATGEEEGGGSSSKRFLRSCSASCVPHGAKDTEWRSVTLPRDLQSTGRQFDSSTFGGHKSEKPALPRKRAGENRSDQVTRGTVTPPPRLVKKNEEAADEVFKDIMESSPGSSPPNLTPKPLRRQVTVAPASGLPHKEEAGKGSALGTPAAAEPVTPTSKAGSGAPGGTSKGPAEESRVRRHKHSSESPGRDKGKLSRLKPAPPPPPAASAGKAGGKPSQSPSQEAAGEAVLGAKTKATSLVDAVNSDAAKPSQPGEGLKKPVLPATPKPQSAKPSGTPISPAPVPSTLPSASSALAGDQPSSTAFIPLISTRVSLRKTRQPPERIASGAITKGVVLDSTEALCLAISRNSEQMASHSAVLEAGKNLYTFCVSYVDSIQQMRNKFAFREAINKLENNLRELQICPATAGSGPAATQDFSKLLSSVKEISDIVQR
Ras and Rab interactor 1/Tyrosine-protein kinase ABL1, sequence (Q13671 whole entry): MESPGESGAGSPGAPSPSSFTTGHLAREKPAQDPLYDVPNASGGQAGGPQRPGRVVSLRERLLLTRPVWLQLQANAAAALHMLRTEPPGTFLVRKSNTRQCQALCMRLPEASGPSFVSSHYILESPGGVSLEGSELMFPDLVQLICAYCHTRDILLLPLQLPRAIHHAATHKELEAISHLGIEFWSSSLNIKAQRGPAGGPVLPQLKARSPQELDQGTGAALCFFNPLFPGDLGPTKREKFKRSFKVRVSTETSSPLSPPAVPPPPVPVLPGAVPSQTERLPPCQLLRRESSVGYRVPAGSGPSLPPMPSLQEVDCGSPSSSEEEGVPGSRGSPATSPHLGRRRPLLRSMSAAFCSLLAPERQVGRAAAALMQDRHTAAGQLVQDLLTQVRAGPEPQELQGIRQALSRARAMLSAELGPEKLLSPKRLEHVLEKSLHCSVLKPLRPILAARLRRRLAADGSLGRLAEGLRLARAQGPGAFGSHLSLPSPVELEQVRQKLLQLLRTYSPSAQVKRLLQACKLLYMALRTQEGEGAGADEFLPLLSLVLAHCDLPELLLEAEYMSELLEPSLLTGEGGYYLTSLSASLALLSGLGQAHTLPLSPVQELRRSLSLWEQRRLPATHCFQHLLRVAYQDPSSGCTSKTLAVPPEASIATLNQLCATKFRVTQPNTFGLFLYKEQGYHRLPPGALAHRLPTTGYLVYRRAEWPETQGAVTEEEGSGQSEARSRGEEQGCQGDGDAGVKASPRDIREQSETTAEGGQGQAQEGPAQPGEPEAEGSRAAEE

SMILES | IC50 (Orexin receptor type 2 [1]) | IC50 [2] | IC50 [3] | IC50 [4] | IC50 (CHO-K1) | IC50 (Orexin receptor type 2 [5]) | EC50 (H4) | EC50 [6] | EC50 [7] | IC50 (Melanocortin receptor 4) | IC50 [8] | IC50 (Genome polyprotein) | CC50 (Vero) | IC50 [9]
CCN(CC)c1ccc(NC(=O)c2cc3ccccc3o2)c(C)c1 | > 88.8 µM (inactive) | 2.43 µM (active) | > 49.8 µM (inactive) | > 49.8 µM (inactive) | > 66.2 µM (inactive) | > 50 µM (inactive) |  |  |  |  |  |  |  | 
CSc1nc2ccc3nc(NC(=O)c4ccccc4)sc3c2s1 | > 88.8 µM (inactive) | 1.13 µM (active) | > 49.7 µM (inactive) | 2.05 µM (active) | > 66.2 µM (inactive) | > 50 µM (inactive) | > 120 µM (not active) | 43.8 µM (active) | 38.3 µM (active) |  |  |  |  | 
Sc1nnc(-c2ccc3ccccc3n2)n1-c1cc(Cl)cc(Cl)c1 |  |  |  |  |  |  |  |  |  | > 64.6 µM (inactive) | > 64.6 µM (inactive) |  |  | 
CCOc1c(Cl)cc(C(=O)Nc2ccccc2C(=O)O)cc1Cl |  |  |  |  |  |  |  |  |  |  |  | 52 µM (active) | > 40 µM (active) | 26.8 µM (inactive)
